Data as given in US20260055061A1, “HALOPHTHALIMIDE COMPOUNDS AND METHODS OF USE AGAINST TBI, INFLAMMATORY DISORDER, AUTOIMMUNE DISORDER, NEURODEGENERATIVE DISEASE OR VIRAL INFECTION” (The United States of America, as represented by the …, priority 2022, published 2026).
“Also recorded” adds a separate entry of the source.

Assays:
IFN-γ = assay: LPS model of inflammation in rats: IFN-γ in plasma and cortex; type: in vivo, rat; settings: LPS-challenged rats; for IFN-γ in plasma (in words): low and high dose
RAW 264.7 cells = assay: Cell viability of drug treated RAW 264.7 cells (CellTiter 96 AQueous One, MTS)
CCI-induced TBI mice [1] = assay: Controlled cortical impact (CCI) mouse model of TBI: beam walking test; type: in vivo; settings: for beam walking test average transit time / beam walking test immobility time: 1 week after CCI
Procedure: (§1) In vivo model of TBI: Mice were anesthetized with 2.5% tribromoethanol (Avertin: 250 mg/kg; Sigma, St. Louis, MO, USA) and placed in a stereotaxic frame (Kopf Instruments, Tujunga, CA, USA). A 4 mm craniotomy was performed using sterile procedures; the craniotomy point was selected midway between the lambda and bregma sutures and laterally midway between the central suture and the temporalis muscle. The skull fragment was then carefully removed without disruption of the underlying dura. Prior to injury induction, the tip of the impactor was angled and kept perpendicular to the exposed cortical surface. The mouse CCI instrument consisted of an electromagnetic impactor, Impact One (Leica Biosystems Inc., Buffalo Grove, IL, USA) that allows independent alteration of injury severity by controlling contact velocity and the level of cortical deformation. In these experiments, the contact velocity was set at 5.0 m/sec, the dwell time was set at 0.2 s and the deformation depth was set at 2 mm to produce a moderate TBI. The injury site was allowed to dry prior to suturing the wound. During surgery and recovery, the body temperature of the animals was maintained at 36-37° C. by using a heating pad. […] Mice were randomized following CCI to treatment with either of two doses of TFBP (16.25 mg/kg and 32.5 mg/kg, i.p.) or saline, and were dosed at 1 and 24 hr after the injury.
Behavioral assessment for motor functions and coordination: Behavioral tests were performed 1 week and 2 weeks after injury, to assess changes in motor functions and coordination. All tests were performed during the animals' light phase; cages were transported to testing rooms at least 30 min prior to testing.
Beam Walking Test (BWT): A BWT was used to assess CCI-induced deficits in fine motor coordination. Mice have a preference for a darkened enclosed environment, as compared to an open illuminated one. Each animal was placed in darkened goal box for a 2 min habituation and then the trial began from the other (light) end of the beam. The beam was constructed with the following dimensions: 1.2 cm (width)×91 cm (length). The time taken for each animal to traverse the beam to reach the dark goal box and the immobility time spent between the moment when they were initially placed in the beam and when they started walking were documented. Five trials were recorded for each animal before CCI and at 1 and 2 weeks after CCI. The mean times to traverse the beam and the immobility times were calculated, and a plot was generated to evaluate treatment effects; these times were then used for statistical analysis.
(§2) In Vivo Model of TBI: TBI studies were conducted in 8-week-old male C57/BL6 mice (25-30 g; n=20), Jackson Laboratory, Bar Harbor, Maine USA. Mice were randomly assigned to four groups prior surgery, CMC+Sham, CMC+TBI, compound 30 (Low dose (LD), 14.78 mg/kg, prepared in 1% CMC in PBS)+TBI, compound 30 (High dose (HD), 29.57 mg/kg)+TBI, and evaluated the effects of compound 30 on TBI. Mice were assessed for gait function and motor coordination, balance function. Animals were subsequently evaluated for cellular changes using histological and immunohistochemistry staining.
Mice were anesthetized with 2.5% tribromoethanol (Avertin: 250 mg/kg; Sigma, St. Louis, MO, USA)) and placed in a mouse stereotaxic frame (Kopf Instruments, Tujunga, CA, USA) and fixed by ear bars and incisor bar. Under sterile procedures, the skin was retracted and a 5-mm square craniectomy was executed over right motor cortex at the posterior corner between the bregma and sagittal sutures. The skull was carefully removed by a drill to avoid damaging the dura underneath. The process of craniectomy proceeded without having the temporalis muscle impaired. The CCI device, Impact One (Leica Biosystems Inc., Buffalo Grove, IL, USA), consists of an electromagnetic impactor that allows alteration of injury severity by controlling contact velocity and the depth of cortical deformation independently. […]

CCI-induced TBI mice [2] = assay: CCI mouse model of TBI: Iba1 microglia / GFAP astrocyte immunofluorescence (MotiQ); type: in vivo
Procedure: as §1
Tissue processing: Two weeks after injury, mice were deeply anesthetized with isoflurane and perfused transcardially with 30 ml phosphate buffered saline (PBS). After removal, the brain was post-fixed with 4% PFA overnight then transferred to a 30% sucrose solution in PBS. Coronal sections from the dorsal hippocampus and the posterior parietal cortex were cryosectioned at 25 μm thickness and stored in cryoprotectant solution for Giemsa staining and immunohistochemical analysis.
Immunofluorescence analysis: For GFAP and Iba1 quantification, brain samples were incubated overnight with either one of the following primary antibodies: anti-GFAP 1:2500 dilution (chicken polyclonal, Abcam, USA, cat #ab4674) or anti-Iba1 1:200 dilution (guinea pig polyclonal anti-Iba1, Synaptic System, USA, cat #234004). After PBS washing, sections were incubated for 1 hr at RT with a goat anti-chicken AlexaFluor® 488-conjugated secondary antibody IgY (H+L) 1:500 dilution (ThermoFisher, USA, cat #A-21432) for detection of GFAP, and with a Goat anti-Guinea Pig IgG (H+L) Highly Cross-Adsorbed Secondary Antibody, Alexa Fluor™ 555, ThermoFisher, USA, cat #A-21435) for detection of Iba1. Sections were washed in PBS and mounted with […]® Antifade Mounting Medium with DAPI (Vectorlabs, USA, cat #H-1200). Controls consisted of omission of the primary antibody. […] Multiple parameters were analyzed, including ramification index, spanned area, number of branches, junctions and endpoints.
as §2, with “staining. […]” for “staining.”

| SMILES | Brain cortex IFN-γ levels (in words) (IFN-γ) | IFN-γ in plasma (in words) (IFN-γ) | cell viability (RAW 264.7 cells; 1 μM, RAW 264.7 cells) | Cell Viability % Δ (RAW 264.7 cells; 1 μM, RAW 264.7 cells, percentage of vehicle control value, mean ± S.E.M., n = 3) | cell viability (in words) (RAW 264.7 cells; 100-1000 nM, vs LPS+Vehicle) | beam walking test average transit time (CCI-induced TBI mice [1]; higher dose 32.5 mg/kg i.p.) | beam walking test immobility time (CCI-induced TBI mice [1]; higher dose 32.5 mg/kg i.p.) | beam walking test average transit time (CCI-induced TBI mice [1]; lower dose 16.25 mg/kg i.p.) | beam walking test immobility time (CCI-induced TBI mice [1]; lower dose 16.25 mg/kg i.p.) | microglial morphology (ramification index, spanned area, end points, branches, junctions), ipsilateral side (CCI-induced TBI mice [2]; lower and higher dose, 2 weeks after CCI) | cellular viability (RAW 264.7 cells; 0.6-60 μM, LPS 60 ng/mL, 24 h) | beam walking test average time (CCI-induced TBI mice [1]; high dose 29.57 mg/kg) | beam walking test, average time and contralateral foot falls (trend) (CCI-induced TBI mice [1]; treated groups 14.78, 29.57 mg/kg) | number of astrocytes (GFAP) in cortex (CCI-induced TBI mice [2]; 14.78, 29.57 mg/kg, 2 weeks after TBI) | number of branches, junctions, endpoints of microglial processes (CCI-induced TBI mice [2]; 14.78, 29.57 mg/kg, ipsilateral cortex) | number of microglia induced by TBI (CCI-induced TBI mice [2]; cortex) | microglial ramification index and spanned area (CCI-induced TBI mice [2]; ipsilateral cortex, 2 weeks after TBI) |
| --- | --- | --- | --- | --- | --- | --- | --- | --- | --- | --- | --- | --- | --- | --- | --- | --- | --- |
| CC1(C)[C@@H]2CC[C@@]1(C)[C@@H](N1C(=O)c3c(F)c(F)c(F)c(F)c3C1=O)C2 [Compound 14, 4,5,6,7-Tetrafluoro-2-((1R,2S,4R)-1,7,7-trimethylbicyclo[2.2.1]heptan-2-yl) isoindoline-1,3-dione] | not impacted | proved able to reduce this rise | ≥ 94% | 95 ± 4% | not significantly affected; also recorded: without impact on cell viability | prevented the CCI-induced behavioral impairment | prevented the CCI-induced behavioral impairment | but not the average transit time deficit | effective in mitigating the immobility measure | substantially counteracted these CCI-induced microglial phenotypic measures | – | – | – | – | – | – | – |
| O=C1c2c(F)c(F)c(F)c(F)c2C(=O)N1C1CC2CCC1C2 (stereo not drawn) [Compound 16, 2-Endo-(bicyclo[2.2.1]heptan-2-yl)-4,5,6,7-tetrafluoroisoindoline-1,3-dione] | not impacted | proved able to reduce this rise | – | – | – | – | – | – | – | – | – | – | – | – | – | – | – |
| Nc1ccc(F)c2c1C(=S)N(C1CCC(=S)NC1=O)C2=O (stereo not shown) [Compound 30, 4-amino-7-fluoro-2-(2-oxo-6-thioxopiperidin-3-yl)-3-thioxoisoindolin-1-one] | – | – | – | – | – | – | – | – | – | – | > 90% | reached significant different | clear reducing trends | significantly decreased the number of astrocytes | significantly rescue the morphological changes of microglia | subtle reduction, but not significant | significantly ameliorated the morphological alteration of microglia |
